Reference: US4500544A, “Ascochlorin derivatives, and pharmaceutical composition containing the same” (Chugai Seiyaku Kabushiki Kaisha, priority 1981, dated 1985)

Legend:
Type in all cases: in vivo, ddY male mice
[1] = system: streptozotocin diabetic ddY mice; test: streptozotocin-diabetic mice, diet with 0.1% compound (Example 21)
Experimental: Five-week-old ddY male mice were injected intraperitoneally with 130 mg/kg of streptozotocin. […] Each group was allowed to take the diet and drink water freely. One week later, the levels of glucose, insulin, free fatty acid in serum and glycogen in liver were measured.

Ehrlich ascites tumor = test: life span of mice with Ehrlich ascites tumor (Example 22); settings: 2 mg i.p. once a day for 7 days; for Days survived: n=8, control 15.5 ± 2.12; for T/0 (%): control 100
Experimental: 10^6 Cells of Ehrlich ascites tumor were transplanted in five-week-old ddY male mice and from the 24th hour onward, they were injected intraperitoneally the compounds indicated in Table 4 of the present invention once a day for 7 consecutive days. Each injection contained 2 mg of the test compounds. The efficacy of the compounds is indicated in Table 4 in terms of their life span.

[2] = plasma glucose and cholesterol in normal mice fed the compounds (Example 19); settings: 0.1% in diet, one week, n=10; for total cholesterol in plasma: control 135.9 ± 4.8; for plasma glucose: control 271.6 ± 0.4
Experimental: Five-week-old ddY male mice (n=10) were given for one week a diet (CE-2 from Nippon Crea Co., Ltd.) containing 0.1% of the sample compounds of the present invention indicated in Table 1. Blood was then withdrawn from the heart and the glucose and cholesterol levels in plasma were measured.

[3] = serum lipid and glucose in normal mice fed the compounds (Example 25); settings: for free fatty acid in serum / neutral fat in serum / total cholesterol in serum / serum glucose / lipid level in serum (in words): 0.05% in diet, one week; for free fatty acid in serum / neutral fat in serum / total cholesterol in serum / serum glucose: n=8; for free fatty acid in serum: control 25.3 ± 1.62; for neutral fat in serum: control 134.7 ± 8.6; for total cholesterol in serum: control 135.9 ± 4.8; for serum glucose: control 293.0 ± 13.3; for free fatty acid in serum, change / neutral fat in serum, change / serum glucose, change / total cholesterol in serum, change: vs control
Experimental: Five-week-old ddY male mice were given for one week a diet (CE-2 from Nippon Crea Co., Ltd.) containing 0.05% of the compounds of the present invention indicated in Table 7. On the 7th day, the mice were sacrificed and the levels of lipid and glucose in their serum were measured.

| Structure (SMILES) | Days survived (Ehrlich ascites tumor) | T/0 (%) (Ehrlich ascites tumor) | total cholesterol in plasma [2] | plasma glucose [2] | free fatty acid in serum [3] | neutral fat in serum [3] | total cholesterol in serum [3] | serum glucose [3] | free fatty acid in serum, change [3] | neutral fat in serum, change [3] | serum glucose, change [3] | total cholesterol in serum, change [3] | further results |
| --- | --- | --- | --- | --- | --- | --- | --- | --- | --- | --- | --- | --- | --- |
| CCOC(=O)COc1c(Cl)c(C)c(C=O)c(O)c1C/C=C(C)/C=C/C1(C)C(C)CCC(=O)C1C (centres unmarked) [Example 1, 4-O-ethoxycarbonylmethylated ascochlorin] | 19.3 ± 5.77 days | 125% | 105.7 ± 3.0 mg/dL | 208.3 ± 13.1 mg/dL | – | – | – | – | – | – | – | – | serum immunoreactive insulin ([1]; 0.1% in diet, one week, n=10, control 42.67 ± 4.61): 26.60 ± 2.78 μU/ml; serum free fatty acid ([1]; 0.1% in diet, one week, n=10, control 44.29 ± 2.05): 30.44 ± 1.22 mg/dL; serum glucose ([1]; 0.1% in diet, one week, n=10, control 337.7 ± 23.0): 250.6 ± 26.2 mg/dL; body weight after feeding ([1]; 0.1% in diet, one week, before feeding 25.5 ± 0.4, control after feeding 28.0 ± 0.5, ns): 27.0 ± 0.6 g/mouse; serum free fatty acid, change ([1]; vs control): -31.3%; serum glucose, change ([1]; vs control): -25.8%; serum immunoreactive insulin, change ([1]; vs control): -37.7% |
| CCOC(=O)C(C)Oc1c(Cl)c(C)c(C=O)c(O)c1C/C=C(C)/C=C/C1(C)C(C)CCC(=O)C1C (centres unmarked) [Example 5, 4-O-(1-ethoxycarbonylethyl) ester of ascochlorin] | > 19.1 ± 1.97 days | 123% | 109.7 ± 5.0 mg/dL | 205.7 ± 8.2 mg/dL | – | – | – | – | – | – | – | – | – |
| CCOC(=O)CCCOc1c(Cl)c(C)c(C=O)c(O)c1C/C=C(C)/C=C/C1(C)C(C)CCC(=O)C1C (centres unmarked) [Example 8, 4-O-(3-ethoxycarbonyl)propyl ester of ascochlorin] | – | – | 115.0 ± 6.6 mg/dL | 255.5 ± 17.0 mg/dL | – | – | – | – | – | – | – | – | – |
| CC(/C=C/C1(C)C(C)CCC(=O)C1C)=C\Cc1c(O)c(C=O)c(C)c(Cl)c1OC(C)C(=O)O (centres unmarked) [Example 9] | > 28.8 ± 3.54 days | 186% | 106.7 ± 5.5 mg/dL | 210.0 ± 10.7 mg/dL | – | – | – | – | – | – | – | – | – |
| CC(/C=C/C1(C)C(C)CCC(=O)C1C)=C\Cc1c(O)c(C=O)c(C)c(Cl)c1OCCCC(=O)O (centres unmarked) [Example 10] | 19.3 ± 10.12 days | 125% | 115.7 ± 5.0 mg/dL | 220.1 ± 6.8 mg/dL | – | – | – | – | – | – | – | – | – |
| CCN(CC)C(=O)Oc1c(Cl)c(C)c(C=O)c(O)c1C/C=C(C)/C=C/C1(C)C(C)CCC(=O)C1C (centres unmarked) [Example 13, 4-O--diethylcarbamoyl ascochlorin] | – | – | – | – | 26.4 ± 0.58 mg/dL | 110.2 ± 16.4 mg/dL | 121.2 ± 5.0 mg/dL | 215.2 ± 5.7 mg/dL | +4.3% | -18.2% | -26.6% | -10.8% | – |
| CC(/C=C/C1(C)C(C)CCC(=O)C1C)=C\Cc1c(O)c(C=O)c(C)c(Cl)c1OC(=O)COc1ccc(Cl)cc1 (centres unmarked) [Example 14, 4-O-(p-chlorophenoxy)acetyl ascochlorin] | – | – | – | – | 24.9 ± 0.48 mg/dL | 99.4 ± 9.4 mg/dL | 115.6 ± 9.8 mg/dL | 209 ± 8.9 mg/dL | -1.6% | -26.2% | -28.7% | -14.8% | lipid level in serum (in words) [3]: could also reduce the lipid level in serum |
| COc1ccc(C(=O)Oc2c(Cl)c(C)c(C=O)c(O)c2C/C=C(C)/C=C/C2(C)C(C)CCC(=O)C2C)cc1 (centres unmarked) [Example 15, 4-O--(p-methoxybenzoyl) ascochlorin] | – | – | – | – | 25.2 ± 1.89 mg/dL | 141.4 ± 21.3 mg/dL | 137.9 ± 4.1 mg/dL | 199.3 ± 8.6 mg/dL | -0.4% | +4.9% | -31.9% | +1.4% | – |
| COC(=O)c1ccc(C(=O)Oc2c(Cl)c(C)c(C=O)c(O)c2C/C=C(C)/C=C/C2(C)C(C)CCC(=O)C2C)cc1 (centres unmarked) [Example 16, 4-O--(p-methoxycarbonyl)-benzoyl ascochlorin] | – | – | – | – | 21.8 ± 0.69 mg/dL | 136.3 ± 8.1 mg/dL | 129.6 ± 3.9 mg/dL | 229.9 ± 17.0 mg/dL | -15.9% | +1.2% | -21.5% | -4.6% | – |
| CC(/C=C/C1(C)C(C)CCC(=O)C1C)=C\Cc1c(O)c(C=O)c(C)c(Cl)c1OC(=O)c1ccncc1 (centres unmarked) [Example 17, 4-O-isonicotinoyl ascochlorin] | – | – | – | – | 20.3 ± 0.77 mg/dL | 116.1 ± 13.8 mg/dL | 113.5 ± 7.8 mg/dL | 191.6 ± 13.2 mg/dL | -19.8% | – | -34.6% | -16.5% | lipid level in serum (in words) [3]: could also reduce the lipid level in serum |
| CC(/C=C/C1(C)C(C)CCC(=O)C1C)=C\Cc1c(O)c(C=O)c(C)c(Cl)c1OC(=O)c1ccccn1 (centres unmarked) [Example 18, 4-O--picolinyl ascochlorin] | – | – | – | – | 23.5 ± 3.13 mg/dL | 117.6 ± 6.8 mg/dL | 138.4 ± 3.1 mg/dL | 247.7 ± 9.0 mg/dL | -7.1% | -12.7% | -15.5% | +1.8% | – |
